Data as given in ChEMBL document CHEMBL4699513, “Sulfamic acid catalyzed synthesis of new 3,5-[(sub)phenyl]-1H-pyrazole bearing N-isonicotinoyl: And their pharmacological activity evaluation” (2020).
Converted amounts (≈) assume the structure as drawn. The source made the active and inactive calls. The rule behind the calls is not given here.

How the values were obtained:
[1] = system: Mycobacterium tuberculosis; assay: Antimycobacterial activity against Mycobacterium tuberculosis H37Rv assessed as bacterial growth inhibition; format: functional
Staphylococcus aureus [2] = assay: Antimicrobial activity against Staphylococcus aureus ATCC 29737 incubated for 24 hrs by broth microdilution method; format: functional
Escherichia coli [3] = assay: Antimicrobial activity against Escherichia coli ATCC 25922 assessed as zone of inhibition at 4 mg/ml incubated for 24 hrs by agar well diffusion method; format: functional; conditions: read-out: IZ
Salmonella typhi [4] = assay: Antimicrobial activity against Salmonella typhi ATCC 23564 incubated for 24 hrs by broth microdilution method; format: functional, Salmonella enterica subsp. enterica serovar Typhi; conditions: Salmonella enterica
Escherichia coli [5] = assay: Antimicrobial activity against Escherichia coli ATCC 25922 incubated for 24 hrs by broth microdilution method; format: functional
[6] = Antioxidant activity assessed as DPPH radical scavenging activity at 250 to 1000 ug/ml after 30 mins by UV-Vis spectrophotometric analysis; format: functional; conditions: dose microg/ml 250-1000, time 30.0 min
[7] = system: Mycobacterium tuberculosis; assay: Antimycobacterial activity against Mycobacterium tuberculosis H37Rv assessed as bacterial growth inhibition at MIC of 144 uM; format: functional; set-up: scale not given: the % may be the effect or the level left
Staphylococcus aureus [8] = assay: Antimicrobial activity against Staphylococcus aureus ATCC 29737 assessed as zone of inhibition at 4 mg/ml incubated for 24 hrs by agar well diffusion method; format: functional; conditions: read-out: IZ
Pseudomonas aeruginosa [9] = assay: Antimicrobial activity against Pseudomonas aeruginosa ATCC 19429 assessed as zone of inhibition at 4 mg/ml incubated for 24 hrs by agar well diffusion method; format: functional; conditions: for zone of inhibition at 4000 µg/mL: read-out: IZ
MCF7 [10] = assay: Anticancer activity against human MCF7 cells assessed as inhibition of cell growth at 80 ug/ml by sulforhodamine B assay; format: functional, cell-based; conditions: dose 80.0 µg/ml
Salmonella typhi [11] = assay: Antimicrobial activity against Salmonella typhi ATCC 23564 assessed as zone of inhibition at 4 mg/ml incubated for 24 hrs by agar well diffusion method; format: functional, Salmonella enterica subsp. enterica serovar Typhi; conditions: Salmonella enterica, read-out: IZ
Pseudomonas aeruginosa [12] = assay: Antimicrobial activity against Pseudomonas aeruginosa ATCC 19429 incubated for 24 hrs by broth microdilution method; format: functional
HeLa = assay: Anticancer activity against human HeLa cells assessed as inhibition of cell growth at 40 to 80 ug/ml by sulforhodamine B assay; format: functional, cell-based; conditions: dose microg/ml 40-80
[13] = system: Mycobacterium tuberculosis; assay: Antimycobacterial activity against Mycobacterium tuberculosis H37Rv assessed as bacterial growth inhibition at the MIC of 266 uM; format: functional; set-up: scale not given: the % may be the effect or the level left
[14] = system: Mycobacterium tuberculosis; assay: Antimycobacterial activity against Mycobacterium tuberculosis H37Rv assessed as bacterial growth inhibition at MIC of 15 uM; format: functional; set-up: scale not given: the % may be the effect or the level left
[15] = system: Mycobacterium tuberculosis; assay: Antimycobacterial activity against Mycobacterium tuberculosis H37Rv assessed as bacterial growth inhibition at MIC of 614 uM; format: functional; set-up: scale not given: the % may be the effect or the level left
[16] = system: Mycobacterium tuberculosis; assay: Antimycobacterial activity against Mycobacterium tuberculosis H37Rv assessed as bacterial growth inhibition at MIC of 31 uM; format: functional; set-up: scale not given: the % may be the effect or the level left
[17] = system: Mycobacterium tuberculosis; assay: Antimycobacterial activity against Mycobacterium tuberculosis H37Rv assessed as bacterial growth inhibition at MIC of 1343 uM; format: functional; set-up: scale not given: the % may be the effect or the level left
[18] = system: Mycobacterium tuberculosis; assay: Antimycobacterial activity against Mycobacterium tuberculosis H37Rv assessed as bacterial growth inhibition at MIC of 566 uM; format: functional; set-up: scale not given: the % may be the effect or the level left
[19] = system: Mycobacterium tuberculosis; assay: Antimycobacterial activity against Mycobacterium tuberculosis H37Rv assessed as bacterial growth inhibition at MIC of 237 uM; format: functional; set-up: scale not given: the % may be the effect or the level left
[20] = system: Mycobacterium tuberculosis; assay: Antimycobacterial activity against Mycobacterium tuberculosis H37Rv assessed as bacterial growth inhibition at MIC of 1.4 uM; format: functional; set-up: scale not given: the % may be the effect or the level left
[21] = system: Mycobacterium tuberculosis; assay: Antimycobacterial activity against Mycobacterium tuberculosis H37Rv assessed as bacterial growth inhibition at MIC of 164 uM; format: functional; set-up: scale not given: the % may be the effect or the level left
MCF7 [22] = assay: Anticancer activity against human MCF7 cells assessed as inhibition of cell growth at 20 to 80 ug/ml by sulforhodamine B assay; format: functional, cell-based; conditions: dose microg/ml 20-80
[23] = system: Mycobacterium tuberculosis; assay: Antimycobacterial activity against Mycobacterium tuberculosis H37Rv assessed as bacterial growth inhibition at MIC of 34 uM; format: functional; set-up: scale not given: the % may be the effect or the level left
[24] = system: Mycobacterium tuberculosis; assay: Antimycobacterial activity against Mycobacterium tuberculosis H37Rv assessed as bacterial growth inhibition at MIC of 294 uM; format: functional; set-up: scale not given: the % may be the effect or the level left
[25] = system: Mycobacterium tuberculosis; assay: Antimycobacterial activity against Mycobacterium tuberculosis H37Rv assessed as bacterial growth inhibition at the MIC of 153 uM; format: functional; set-up: scale not given: the % may be the effect or the level left

SMILES | MIC [1] | MIC (Staphylococcus aureus [2]) | zone of inhibition at 4000 µg/mL (Escherichia coli [3]) | MIC (Salmonella typhi [4]) | MIC (Escherichia coli [5]) | Activity [6] | zone of inhibition at 4000 µg/mL (Staphylococcus aureus [8]) | zone of inhibition at 4000 µg/mL (Pseudomonas aeruginosa [9]) | zone of inhibition at 4000 µg/mL (Salmonella typhi [11]) | MIC (Pseudomonas aeruginosa [12]) | also measured
COc1cccc(C2=CC(c3ccc(Br)cc3)N(C(=O)c3ccncc3)N2)c1 (configuration not stated) | 144 µM (≈ 62.8 µg/mL) | 14 µM (≈ 6.11 µg/mL) | 16.4 mm | 114 µM (≈ 49.7 µg/mL) | 57 µM (≈ 24.9 µg/mL) | Active | 26.4 mm | 14.3 mm | 22.4 mm | 229 µM (≈ 99.9 µg/mL) | Activity [7]: 98%; Activity (MCF7 [10]): Active; Activity (HeLa): Active
Cc1ccc(C2C=C(c3ccc(Cl)cc3)NN2C(=O)c2ccncc2)cc1 (configuration not stated) | 266 µM (≈ 100 µg/mL) | 66 µM (≈ 24.8 µg/mL) | 12.6 mm | 533 µM (≈ 200 µg/mL) | 533 µM (≈ 200 µg/mL) | Active | – | – | 21.4 mm | 133 µM (≈ 50 µg/mL) | Activity [13]: 98%
CC[C@@H](CO)NCCN[C@@H](CC)CO [ETHAMBUTOL] | 15 µM (≈ 3.06 µg/mL) | – | – | – | – | – | – | – | – | – | Activity [14]: 99%
O=C(c1ccncc1)N1NC(c2ccc(Cl)cc2)=CC1c1ccc([N+](=O)[O-])cc1 (configuration not stated) | 614 µM (≈ 250 µg/mL) | 245 µM (≈ 99.7 µg/mL) | 17.1 mm | 245 µM (≈ 99.7 µg/mL) | 122 µM (≈ 49.6 µg/mL) | Active | 23.4 mm | 14.2 mm | 18.3 mm | 122 µM (≈ 49.6 µg/mL) | Activity [15]: 95%
COc1cccc(C2=CC(c3ccc(Cl)cc3)N(C(=O)c3ccncc3)N2)c1 (configuration not stated) | 31 µM (≈ 12.1 µg/mL) | 31 µM (≈ 12.1 µg/mL) | 12.3 mm | 511 µM (≈ 200 µg/mL) | 127 µM (≈ 49.8 µg/mL) | Active | 27.2 mm | 12.3 mm | – | 63 µM (≈ 24.7 µg/mL) | Activity [16]: 99%
O=C(c1ccncc1)N1NC(c2ccccc2)=CC1c1cccc([N+](=O)[O-])c1 (configuration not stated) | 1340 µM (≈ 500 µg/mL) | 537 µM (≈ 200 µg/mL) | 10.2 mm | 537 µM (≈ 200 µg/mL) | 268 µM (≈ 99.8 µg/mL) | Active | 8.4 mm | 12.3 mm | 15.3 mm | 67 µM (≈ 24.9 µg/mL) | Activity [17]: 95%
CN[C@@H]1[C@H](O[C@H]2[C@H](O[C@H]3[C@H](O)[C@@H](O)[C@H](N=C(N)N)[C@@H](O)[C@@H]3N=C(N)N)O[C@@H](C)[C@]2(O)C=O)O[C@@H](CO)[C@H](O)[C@H]1O [STREPTOMYCIN] | – | 5.3 µM (≈ 3.08 µg/mL) | 22.2 mm | 5.3 µM (≈ 3.08 µg/mL) | 5.3 µM (≈ 3.08 µg/mL) | – | 30.6 mm | 25 mm | 29.1 mm | 5.3 µM (≈ 3.08 µg/mL) | –
CC1(C)S[C@@H]2[C@H](NC(=O)[C@H](N)c3ccccc3)C(=O)N2[C@H]1C(=O)O [AMPICILLIN] | – | 8.9 µM (≈ 3.11 µg/mL) | 24.4 mm | – | 8.9 µM (≈ 3.11 µg/mL) | – | 27.3 mm | – | – | – | –
O=C(c1ccncc1)N1NC(c2ccc(Cl)cc2Cl)=CC1c1cccc([N+](=O)[O-])c1 (configuration not stated) | 566 µM (≈ 250 µg/mL) | 226 µM (≈ 99.7 µg/mL) | 12.4 mm | 453 µM (≈ 200 µg/mL) | 113 µM (≈ 49.9 µg/mL) | Active | 23.8 mm | – | 21 mm | 453 µM (≈ 200 µg/mL) | Activity [18]: 95%
Cc1ccc(C2=CC(c3ccc(Br)cc3)N(C(=O)c3ccncc3)N2)cc1 (configuration not stated) | 237 µM (≈ 99.6 µg/mL) | 14 µM (≈ 5.88 µg/mL) | – | 237 µM (≈ 99.6 µg/mL) | 118 µM (≈ 49.6 µg/mL) | Active | 25.4 mm | 20.4 mm | – | 14 µM (≈ 5.88 µg/mL) | Activity [19]: 97%
NNC(=O)c1ccncc1 [ISONIAZID] | 1.4 µM (≈ 0.192 µg/mL) | – | – | – | – | – | – | – | – | – | Activity [20]: 99%
O=C(c1ccncc1)N1NC(c2ccc(Cl)cc2)=CC1c1ccc(F)cc1 (configuration not stated) | 164 µM (≈ 62.3 µg/mL) | 131 µM (≈ 49.8 µg/mL) | 15 mm | 263 µM (≈ 99.9 µg/mL) | 32 µM (≈ 12.2 µg/mL) | Active | 22.3 mm | 12.3 mm | – | 131 µM (≈ 49.8 µg/mL) | Activity [21]: 96%
Cc1ccc(C2=CC(c3ccc(F)cc3)N(C(=O)c3ccncc3)N2)cc1 (configuration not stated) | 34 µM (≈ 12.2 µg/mL) | 17 µM (≈ 6.11 µg/mL) | – | 278 µM (≈ 99.9 µg/mL) | 139 µM (≈ 50 µg/mL) | Active | 27 mm | – | – | 139 µM (≈ 50 µg/mL) | Activity (MCF7 [22]): Active; Activity [23]: 99%; inhibition zone (IZ) (Pseudomonas aeruginosa [9]): Active
O=C(c1ccncc1)N1NC(c2ccc(F)cc2)=CC1c1ccc(Br)cc1 (configuration not stated) | 294 µM (≈ 125 µg/mL) | 235 µM (≈ 99.7 µg/mL) | – | 117 µM (≈ 49.6 µg/mL) | 58 µM (≈ 24.6 µg/mL) | Active | 17.8 mm | 12.4 mm | 22.3 mm | 29 µM (≈ 12.3 µg/mL) | Activity [24]: 96%
O=C(c1ccncc1)N1NC(c2ccc(Br)cc2)=CC1c1ccccc1 (configuration not stated) | 153 µM (≈ 62.2 µg/mL) | 492 µM (≈ 200 µg/mL) | – | 492 µM (≈ 200 µg/mL) | 123 µM (≈ 50 µg/mL) | Active | – | 10.3 mm | – | 123 µM (≈ 50 µg/mL) | Activity [25]: 97%
